Source: US9521846B2, “Template-fixed peptidomimetics with antimicrobial activity” (priority 2006, dated 2016)
≈ marks a conversion by molar mass, not a printed value. Non-standard residues stand in square brackets, D forms with d. Residues, ends and D or L forms follow the SMILES beside them. dDab = NCC[C@@H](N)C(=O)O; Nle = CCCC[C@H](N)C(=O)O; Dab = NCC[C@H](N)C(=O)O; Nva = CCC[C@H](N)C(=O)O

Key:
P. aeruginosa ATCC 27853 = type: cell-based, Pseudomonas aeruginosa; details: ATCC 27853
Protocol: (§1) The selective antimicrobial activities of the peptides were determined in 96-well plates (Nunclon polystyrene) by the standard NCCLS broth microdilution method (see ref 1, below) with slight modifications. Innocula of the microorganisms were diluted into Mueller-Hinton (MH) broth+0.02% BSA and compared with a 0.5 Mcfarland standard to give appr. 10^6 colony forming units (CFU)/ml. Aliquots (50 μl) of inoculate were added to 50 μl of MH broth+0.02% BSA containing the peptide in serial two-fold dilutions. The following microorganisms were used to determine antibiotic selectivity of the peptides: Escherichia coli (ATCC 25922), Pseudomonas aeruginosa (P. aeruginosa ATCC 27853, P8191900, P1021903, P1021913, IMP 1 Livermore 3140).

[1] = tested on: Pseudomonas aeruginosa IMP 1 Livermore 3140; type: cell-based; details: IMP 1 Livermore 3140
Protocol: as §1

[2] = tested on: Pseudomonas aeruginosa P1021913; type: cell-based; details: P1021913
Protocol: as §1

[3] = tested on: Pseudomonas aeruginosa P8191900; type: cell-based; details: P8191900
Protocol: as §1

[4] = tested on: Pseudomonas aeruginosa P1021903; type: cell-based; details: P1021903
Protocol: as §1

[5] = tested on: human red blood cells (hRBC); test: Hemolysis; type: cell-based; details: 100
Protocol: Hemolysis of red blood cells is often employed for assessment of toxicity of related compounds such as protegrin or tachyplesin. Values are given as %-lysis of red blood cells observed at a concentration of 100 μg/ml. Typical values determined for cationic peptides such as protegrin and tachyplesin range between 30-40% with average MIC-values of 1-5 μg/ml over a wide range of pathogens.
The peptides were tested for their hemolytic activity against human red blood cells (hRBC). Fresh hRBC were washed three times with phosphate buffered saline (PBS) by centrifugation for 10 min at 2000×g. Peptides at a concentration of 100 μM were incubated with 20% v/v hRBC for 1 hour at 37° C. The final erythrocyte concentration was approximately 0.9×10^9 cells per ml. A value of 0% and, respectively, 100% cell lysis was determined by incubation of the hRBC in the presence of PBS alone and, respectively, 0.1% Triton X-100 in H2O. The samples were centrifuged, the supernatant was 20-fold diluted in PBS buffer and the optical density (OD) of the sample at […] was measured. The 100% lysis value (OD540H20) gave an OD540 of approximately 1.3-1.8. Percent hemolysis was calculated as follows: (OD540peptide/OD540H20)×100%.

HELA cells (Acc57) = test: Cytotoxicity assay, MTT reduction (LC 50, GI 50); type: cell-based
Protocol: The cytotoxicity of the peptides to HELA cells (Acc57) and COS-7 cells (CRL-1651) was determined using the MIT reduction assay [see ref. 2 and 3, below]. Briefly the method was as follows: HELA cells and COS-7 cells were seeded at 7.0×10^3 and, respectively, 4.5×10^3 cells per well and grown in 96-well […] plates for 24 hours at 37° C. at 5% CO2. At this point, time zero (Tz) was determined by MTT reduction (see below). The supernatant of the remaining wells was discarded, and fresh medium and the peptides in serial dilutions of 12.5, 25 and 50 μM were dispensed into the wells. Each peptide concentration was assayed in triplicate. Incubation of the cells was continued for 48 hours at 37° C. at 5% CO2. Wells were then washed once with phosphate buffered saline (PBS) and subsequently 100 μl MIT reagent (0.5 mg/ml in medium RPMI1640 and, respectively, DMEM) were added to the wells. This was incubated at 37° C. for 2 hours and subsequently the medium was aspirated and 100 μl isopropanol were added to each well. The absorbance at 595 nm of the solubilized product was measured (OD595peptide). For each concentration averages were calculated from triplicates. The percentage of growth was calculated as follows: (OD595peptide-OD595Tz-OD595Empty well)/(OD595Tz-OD595Empty well)×100% and was plotted for each peptide concentration.
The LC 50 values (Lethal Concentration, defined as the concentration that kills 50% of the cells) were determined for each peptide by using the trend line function of EXCEL (Microsoft Office 2000) for the concentrations (50, 25, 12.5 and 0 μM), the corresponding growth percentages and the value −50, (=TREND(C50:C0,%50:%0,−50)). The GI 50 (Growth Inhibition) concentrations were calculated for each peptide by using a trend line function for the concentrations (50, 25, 12.5 and 0 […]), the corresponding percentages and the value 50, (=TREND (C50:C0,%50:%0,50).

CC[C@H](C)[C@@H]1NC(=O)[C@H](Cc2c[nH]c3ccccc23)NC(=O)[C@H]([C@@H](C)O)NC(=O)[C@@H]2CCCN2C(=O)[C@H]2CCCN2C(=O)[C@H](CCN)NC(=O)[C@H](C)NC(=O)[C@H](CCN)NC(=O)[C@H](CCN)NC(=O)[C@H](Cc2c[nH]c3ccccc23)NC(=O)[C@H](CCCCN)NC(=O)[C@H](CCN)NC(=O)[C@H](CCCCN)NC(=O)[C@H](CCN)NC1=O [Example 26] (cyclo(TWI[Dab]K[Dab]KW[Dab][Dab]A[Dab][dP]P))
MIC P. aeruginosa ATCC 27853 (P. aeruginosa ATCC 27853): 0.08 µg/mL (≈ 0.0497 µM) | MIC P. aeruginosa IMP1 Livermore 3140 [1]: 0.40 µg/mL (≈ 0.249 µM) | MIC P. aeruginosa P1021913 [2]: 0.18 µg/mL (≈ 0.112 µM) | MIC P. aeruginosa P8191900 [3]: 0.30 µg/mL (≈ 0.186 µM) | MIC P. aeruginosa P1021903 [4]: 0.13 µg/mL (≈ 0.0808 µM) | Hemolysis at 100 μg/ml [5]: 0.8% | Average MIC (P. aeruginosa): 0.22 µg/mL | Cytotoxicity GI50 Hela cells (HELA cells (Acc57)): 50 µM

CCC[C@@H]1NC(=O)[C@H](CCN)NC(=O)[C@H](CCN)NC(=O)[C@H](Cc2c[nH]c3ccccc23)NC(=O)[C@H](CCN)NC(=O)[C@H](CCN)NC(=O)[C@H](CCCCN)NC(=O)[C@H](CCN)NC(=O)[C@H]([C@@H](C)CC)NC(=O)[C@H](Cc2c[nH]c3ccccc23)NC(=O)[C@H]([C@@H](C)O)NC(=O)[C@@H]2CCCN2C(=O)[C@H]2CCCN2C(=O)[C@H](CCN)NC1=O [Example 10] (cyclo(TWI[Dab]K[Dab][Dab]W[Dab][Dab][Nva][Dab][dP]P))
MIC P. aeruginosa ATCC 27853 (P. aeruginosa ATCC 27853): 0.05 µg/mL (≈ 0.0311 µM) | MIC P. aeruginosa IMP1 Livermore 3140 [1]: 0.43 µg/mL (≈ 0.267 µM) | MIC P. aeruginosa P1021913 [2]: 0.37 µg/mL (≈ 0.23 µM) | MIC P. aeruginosa P8191900 [3]: 0.18 µg/mL (≈ 0.112 µM) | MIC P. aeruginosa P1021903 [4]: 0.13 µg/mL (≈ 0.0808 µM) | Hemolysis at 100 μg/ml [5]: 0% | Average MIC (P. aeruginosa): 0.23 µg/mL | Cytotoxicity GI50 Hela cells (HELA cells (Acc57)): 50 µM

CC[C@H](C)[C@@H]1NC(=O)[C@H](Cc2c[nH]c3ccccc23)NC(=O)[C@H]([C@@H](C)O)NC(=O)[C@@H]2CCCN2C(=O)[C@H]2CCCN2C(=O)[C@H](CCN)NC(=O)[C@H](CC(C)C)NC(=O)[C@H](CCN)NC(=O)[C@H](CCN)NC(=O)[C@H](Cc2c[nH]c3ccccc23)NC(=O)[C@H](CCN)NC(=O)[C@H](CCN)NC(=O)[C@H](CCCCN)NC(=O)[C@H](CCN)NC1=O [Example 7] (cyclo(TWI[Dab]K[Dab][Dab]W[Dab][Dab]L[Dab][dP]P))
MIC P. aeruginosa ATCC 27853 (P. aeruginosa ATCC 27853): 0.13 µg/mL (≈ 0.0801 µM) | MIC P. aeruginosa IMP1 Livermore 3140 [1]: >2 µg/mL | MIC P. aeruginosa P1021913 [2]: 0.65 µg/mL (≈ 0.4 µM) | MIC P. aeruginosa P8191900 [3]: 0.50 µg/mL (≈ 0.308 µM) | MIC P. aeruginosa P1021903 [4]: 1.50 µg/mL (≈ 0.924 µM) | Hemolysis at 100 μg/ml [5]: 0.8% | Average MIC (P. aeruginosa): >1 µg/mL | Cytotoxicity GI50 Hela cells (HELA cells (Acc57)): 13 µM

CC[C@H](C)[C@@H]1NC(=O)[C@H](Cc2c[nH]c3ccccc23)NC(=O)[C@H]([C@@H](C)O)NC(=O)[C@@H]2CCCN2C(=O)[C@H]2CCCN2C(=O)[C@H](CCN)NC(=O)[C@H](CCC(=O)O)NC(=O)[C@H](CCN)NC(=O)[C@H](CCN)NC(=O)[C@H](Cc2c[nH]c3ccccc23)NC(=O)[C@H](CCN)NC(=O)[C@H](CCN)NC(=O)[C@H](CCCCN)NC(=O)[C@H](CCN)NC1=O [Example 15] (cyclo(TWI[Dab]K[Dab][Dab]W[Dab][Dab]E[Dab][dP]P))
MIC P. aeruginosa ATCC 27853 (P. aeruginosa ATCC 27853): 0.50 µg/mL (≈ 0.305 µM) | MIC P. aeruginosa IMP1 Livermore 3140 [1]: >2 µg/mL | MIC P. aeruginosa P1021913 [2]: 2.25 µg/mL (≈ 1.37 µM) | MIC P. aeruginosa P8191900 [3]: 2.50 µg/mL (≈ 1.53 µM) | MIC P. aeruginosa P1021903 [4]: 1.25 µg/mL (≈ 0.763 µM) | Hemolysis at 100 μg/ml [5]: 0.3% | Average MIC (P. aeruginosa): >1 µg/mL | Cytotoxicity GI50 Hela cells (HELA cells (Acc57)): 50 µM

CC[C@H](C)[C@@H]1NC(=O)[C@H](Cc2ccc(O)cc2)NC(=O)[C@H]([C@@H](C)O)NC(=O)[C@@H]2CCCN2C(=O)[C@H]2CCCN2C(=O)[C@H](CCN)NC(=O)[C@H](C)NC(=O)[C@H](CCN)NC(=O)[C@H](CCN)NC(=O)[C@H](Cc2c[nH]c3ccccc23)NC(=O)[C@H](CCN)NC(=O)[C@H](CCN)NC(=O)[C@H](CCCCN)NC(=O)[C@H](CCN)NC1=O [Example 19] (cyclo(TYI[Dab]K[Dab][Dab]W[Dab][Dab]A[Dab][dP]P))
MIC P. aeruginosa ATCC 27853 (P. aeruginosa ATCC 27853): 0.03 µg/mL (≈ 0.0193 µM) | MIC P. aeruginosa IMP1 Livermore 3140 [1]: 0.10 µg/mL (≈ 0.0642 µM) | MIC P. aeruginosa P1021913 [2]: 0.10 µg/mL (≈ 0.0642 µM) | MIC P. aeruginosa P8191900 [3]: 0.05 µg/mL (≈ 0.0321 µM) | MIC P. aeruginosa P1021903 [4]: 0.03 µg/mL (≈ 0.0193 µM) | Hemolysis at 100 μg/ml [5]: 0.2% | Average MIC (P. aeruginosa): 0.06 µg/mL | Cytotoxicity GI50 Hela cells (HELA cells (Acc57)): 50 µM

CC[C@H](C)[C@@H]1NC(=O)[C@H](Cc2c[nH]c3ccccc23)NC(=O)[C@H](CCC(=O)O)NC(=O)[C@@H]2CCCN2C(=O)[C@H]2CCCN2C(=O)[C@H](CCC(N)=O)NC(=O)[C@H](C)NC(=O)[C@H](CCN)NC(=O)[C@H](CCN)NC(=O)[C@H](Cc2c[nH]c3ccccc23)NC(=O)[C@H](CCN)NC(=O)[C@@H](CCN)NC(=O)[C@H](CCCCN)NC(=O)[C@H](CCN)NC1=O [Example 45] (cyclo(EWI[Dab]K[dDab][Dab]W[Dab][Dab]AQ[dP]P))
MIC P. aeruginosa ATCC 27853 (P. aeruginosa ATCC 27853): 0.25 µg/mL (≈ 0.153 µM) | MIC P. aeruginosa IMP1 Livermore 3140 [1]: 1.00 µg/mL (≈ 0.611 µM) | MIC P. aeruginosa P1021913 [2]: 1.00 µg/mL (≈ 0.611 µM) | MIC P. aeruginosa P8191900 [3]: 0.50 µg/mL (≈ 0.305 µM) | MIC P. aeruginosa P1021903 [4]: 0.50 µg/mL (≈ 0.305 µM) | Hemolysis at 100 μg/ml [5]: 0.2% | Average MIC (P. aeruginosa): 0.65 µg/mL | Cytotoxicity GI50 Hela cells (HELA cells (Acc57)): 50 µM

CCCC[C@@H]1NC(=O)[C@H](Cc2c[nH]c3ccccc23)NC(=O)[C@H]([C@@H](C)O)NC(=O)[C@@H]2CCCN2C(=O)[C@H]2CCCN2C(=O)[C@H](CCN)NC(=O)[C@H](C)NC(=O)[C@H](CCN)NC(=O)[C@H](CCN)NC(=O)[C@H](Cc2c[nH]c3ccccc23)NC(=O)[C@H](CCN)NC(=O)[C@H](CCN)NC(=O)[C@H](CCCCN)NC(=O)[C@H](CCN)NC1=O [Example 31] (cyclo(TW[Nle][Dab]K[Dab][Dab]W[Dab][Dab]A[Dab][dP]P))
MIC P. aeruginosa ATCC 27853 (P. aeruginosa ATCC 27853): 0.03 µg/mL (≈ 0.019 µM) | MIC P. aeruginosa IMP1 Livermore 3140 [1]: 0.24 µg/mL (≈ 0.152 µM) | MIC P. aeruginosa P1021913 [2]: 0.16 µg/mL (≈ 0.101 µM) | MIC P. aeruginosa P8191900 [3]: 0.16 µg/mL (≈ 0.101 µM) | MIC P. aeruginosa P1021903 [4]: 0.40 µg/mL (≈ 0.253 µM) | Hemolysis at 100 μg/ml [5]: 0.5% | Average MIC (P. aeruginosa): 0.20 µg/mL | Cytotoxicity GI50 Hela cells (HELA cells (Acc57)): 50 µM
